Experimental data from the supplement of paper PMC10307832.

Columns and labels:
Experiment in all cases: relative viability (nuclei count vs DMSO), 5 days (fraction); higher = more cells survive
[1] = compound: CN1CCC(CNc2ccc3ncc(-c4cccc(OC(F)(F)F)c4)n3n2)CC1 [SGI-1776] + Nc1ncn([C@H]2C[C@H](O)[C@@H](CO)O2)c(=O)n1 [Decitabine] (partner 2 µM)
Outline: (§1)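 After 5 days of treatment, lung cancer cells in 1536-well plates were fixed and stained in a single step (final 0.05% Triton X-100, 1% formaldehyde, 1 ug/ml Hoechst) and their nuclei counted on 4× images. Treatment had been applied by pin tool the day after seeding as one drug alone or as a fixed anchor-drug dose with five library-drug doses (not always all listed) in √10 steps. Relative viability is the nuclei count of treated wells divided by that of vehicle wells, and values are medians of duplicate plates.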

[2] = compound: CN1CCC(CNc2ccc3ncc(-c4cccc(OC(F)(F)F)c4)n3n2)CC1 [SGI-1776] + O=C(CCCCCCC(=O)Nc1ccccc1)NO [Vorinostat] (partner 1 µM)
Outline: as §1

[3] = compound: Nc1ccccc1NC(=O)c1ccc(CNC(=O)OCc2cccnc2)cc1 [Entinostat] + O=C(CCCCCCC(=O)Nc1ccccc1)NO [Vorinostat] (partner 1 µM)
Outline: as §1

[4] = compound: CN1CCC(CNc2ccc3ncc(-c4cccc(OC(F)(F)F)c4)n3n2)CC1 [SGI-1776] + C[C@@H](Oc1cc(-c2cnn(C3CCNCC3)c2)cnc1N)c1c(Cl)ccc(F)c1Cl [Crizotinib] (partner 1 µM)
Outline: as §1

Cell Line | relative viability ([1]; first compound 0.08 µM) | relative viability ([1]; first compound 0.8 µM) | relative viability ([1]; first compound 2.53 µM) | relative viability ([1]; first compound 8 µM) | relative viability ([2]; first compound 0.08 µM) | relative viability ([2]; first compound 0.8 µM) | relative viability ([2]; first compound 2.53 µM) | relative viability ([2]; first compound 8 µM) | relative viability ([3]; first compound 0.02 µM) | relative viability ([3]; first compound 0.06325 µM) | relative viability ([3]; first compound 0.2 µM) | relative viability ([3]; first compound 0.6325 µM) | relative viability ([3]; first compound 2 µM) | relative viability ([4]; first compound 0.08 µM) | relative viability ([4]; first compound 0.8 µM) | relative viability ([4]; first compound 2.53 µM) | relative viability ([4]; first compound 8 µM)
NCI-H2126 | 0.575 | 0.576 | 0.559 | 0.54 | 0.709 | 0.801 | 0.77 | 0.698 | 0.74 | 0.883 | 0.733 | 0.314 | 0.317 | 1.01 | 1.04 | 1.08 | 0.968
RERF-LC-KJ | 0.67 | 0.652 | 0.566 | 0.363 | 0.694 | 0.745 | 0.686 | 0.48 | 0.68 | 0.665 | 0.578 | 0.381 | 0.25 | 0.886 | 0.786 | 0.836 | 0.865
H3255 | 0.609 | 0.582 | 0.654 | 0.487 | 0.904 | 0.919 | 0.815 | 0.718 | 0.902 | 0.303 | 0.65 | 0.483 | 0.37 | 1.03 | 1.01 | 0.896 | 0.62
EMC-BAC-2 | 0.964 | 0.994 | 1.08 | 0.915 | 0.551 | 0.593 | 0.424 | 0.298 | 0.969 | 0.433 | 0.6 | 0.331 | 0.218 | 0.838 | 0.7 | 0.701 | 0.461
NCI-H661 | 0.572 | 0.606 | 0.501 | 0.471 | 0.822 | 0.805 | 0.871 | 0.829 | 0.718 | 0.774 | 0.707 | 0.58 | 0.468 | 0.932 | 1.02 | 1.03 | 0.964
SK-MES-1 | 0.365 | 0.372 | 0.367 | 0.303 | 1.23 | 1.04 | 1.11 | 0.734 | 1.02 | 1.03 | 1.26 | 0.954 | 0.743 | 1.11 | 0.947 | 1.02 | 0.979
NCI-H1437 | 0.553 | 0.598 | 0.645 | 0.495 | 0.84 | 0.857 | 0.798 | 0.702 | 0.612 | 0.466 | 0.383 | 0.261 | 0.254 | 0.869 | 0.9 | 1.02 | 0.952
PC-14 | 0.238 | 0.264 | 0.168 | 0.124 | 0.798 | 0.784 | 0.771 | 0.0624 | 0.689 | 0.668 | 0.615 | 0.147 | 0.0636 | 0.889 | 0.895 | 0.96 | 0.79
LK-2 | 0.323 | 0.356 | 0.3 | 0.286 | 0.35 | 0.347 | 0.23 | 0.321 | 0.237 | 0.293 | 0.279 | 0.188 | 0.154 | 0.228 | 0.228 | 0.258 | 0.25
NCI-H1651 | 0.622 | 0.726 | 0.65 | 0.499 | 0.605 | 0.648 | 0.563 | 0.416 | 0.599 | 0.645 | 0.449 | 0.496 | 0.314 | 0.866 | 0.834 | 0.814 | 0.879
LC-2-ad | 0.806 | 0.811 | 0.737 | 0.779 | 0.676 | 0.709 | 0.663 | 0.66 | 0.666 | 0.686 | 0.695 | 0.356 | 0.257 | 0.53 | 0.47 | 0.414 | 0.36
NCI-H1734 | 0.517 | 0.499 | 0.567 | 0.486 | 0.809 | 0.913 | 0.801 | 0.662 | 0.846 | 0.861 | 0.84 | 0.604 | 0.489 | 0.658 | 0.686 | 0.617 | 0.402
NCI-H441 | 0.26 | 0.26 | 0.236 | 0.22 | 0.929 | 0.761 | 0.867 | 0.658 | 0.695 | 0.61 | 0.465 | 0.261 | 0.161 | 0.701 | 0.54 | 0.731 | 0.61
NCI-H727 | 0.875 | 1.01 | 1.01 | 0.613 | 1.26 | 1.11 | 1.39 | 0.983 | 1.24 | 1.27 | 1.16 | 1.06 | 0.673 | 0.831 | 0.79 | 0.863 | 0.48
NCI-H23 | 0.326 | 0.323 | 0.35 | 0.305 | 0.639 | 0.758 | 0.602 | 0.533 | 0.601 | 0.681 | 0.496 | 0.271 | 0.198 | 0.747 | 0.368 | 0.383 | 0.256
NCI-H596 | 1.02 | 1.05 | 1.15 | 0.997 | 0.583 | 0.75 | 0.595 | 0.485 | 0.603 | 0.694 | 0.708 | 0.589 | 0.41 | 1.08 | 1.06 | 0.945 | 0.854
NCI-H460 | 0.476 | 0.61 | 0.49 | 0.494 | 0.887 | 0.688 | 0.717 | 0.715 | 0.751 | 0.567 | 0.245 | 0.052 | 0.0296 | 0.973 | 0.573 | 0.471 | 0.0428
